The record followed here is patent publication EP0565593B1, “REDUCING PESTICIDAL INTERACTIONS IN CROPS” (priority 1990, dated 1992).

Common to all, as to assay type: in vivo
For assay [1], the system named is Corn. Description: Greenhouse test Procedure VI: biocide and antidote in furrow, herbicide PPI in cover layer (Examples 43-47, 59-61; Tables 42-46, 58-60). The following applies: COUNTER 15G/PURSUIT interaction; Example 47. The text has this:
This procedure describes interaction among herbicide, biocide and antidote when the herbicide is incorporated in a soil cover layer and the biocide and the antidote are applied in a soil furrow containing crop seed before emergence of the crop. The soil and seeding depth were described in Procedure IV. A first container was designated as an untreated control, a second container was designated as a herbicide control, a third container was designated as a herbicide + biocide control and a fourth container as a herbicide + biocide + antidote test container. The biocide and antidote were formulated as granules. The biocide was applied to the soil furrows of the third and fourth containers at an application rate of 1.1 mg of active compound per cm of row. The antidote was applied to the soil furrow of the fourth container at an application rate of 0.37 mg of active compound per cm of row. A measured amount of the herbicide dispersed or dissolved in acetone was applied to a measured quantity of soil. The quantity of soil treated with the herbicide was thoroughly mixed to incorporate the herbicide. Samples of this soil were used to cover the seed beds of the second, third and fourth containers. For each test series, the seed bed of the first container was likewise covered by a soil layer not treated with herbicide and without biocide or antidote in the soil furrow.
The containers were then placed on a bench in a greenhouse. Watering was by subirrigation plus overhead irrigation after the plants emerged. All treatments were run in duplicate. Plant response was observed according to Procedure IV. Variations in this procedure will be noted in the examples.
In continuing tests to evaluate the variations of this invention, a series of tests were conducted to determine the efficacy of the above safeners in Examples 39-42 to alleviate corn injury induced by the interaction of various additional commercial sulfonylurea herbicides with COUNTER 15G insecticide. In this example, the tests were conducted according to Procedure VI above. In modifications of that procedure, herbicides were applied to soil samples as acetone/water suspensions, incorporated by shaking in a closed container, with subsamples used to cover furrow-treated 10.2 cm pots. Pots were subirrigated followed by overhead misting on days 6-10.
This example was designed to test the safening effect of those above safeners used in this test series to relieve corn injury by negative synergism induced by interaction of COUNTER 15G and three imidazolinone herbicides, i.e., imazaquin and imazapyr (used in the POE tests in Example 41) and AC 263222 (a.i. in CADRE® herbicide). As differing from the tests in Example 41, this test was a PPI test according to Procedure VI described above. Observation of test results (Table 43) were taken thirteen 913) days after in-furrow PPI preparation.
This example describes PPI tests to evaluate said test safeners in this series with analogs of the sulfonamide herbicides tested under POE herbicide application procedures described in Example 42. In these tests, conducted according to Procedure VI described above, Herbicide Nos. 20, 22 and 24 were applied PPI with the insecticide and antidote. Observations of tests results were made thirteen days after PPI initiation.
An additional three (3) sulfonamide herbicide analogs were tested simultaneously and under the same conditions described in Example 45.
Another test of this invention involved the safening effects of the safeners in this series against negative synergy inducted by the interaction of COUNTER 15G and a sulfonylurea herbicide (OUST®), Herbicide No. 13, and PURSUIT, an imidazolinone herbicide, No. 6. Test conditions were the same as those in Examples 43-46. Other procedures for applying herbicidal formulations are as described in Example 42. […]

Assay [2] deals with Corn. Description: Greenhouse test Procedure VII: biocide and antidote in furrow, herbicide POE (Examples 39-42, 48-50, 56-58; Tables 38-41, 47-49, 55-57). The following applies: in-furrow antidote; COUNTER 15G + sulfonamide herbicides; Table 41. The procedure, abridged: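 Corn seed was planted in greenhouse pots, with COUNTER 15G insecticide plus antidote granules applied in-furrow (e.g. 1.1 + 0.37 mg a.i./cm, or 227 g/305 m with acetone-applied safeners). About five days later, herbicides in water with 0.25% v/v X-77 were track-sprayed post-emergence at 187 L/ha. Plant response was scored eight days afterward, with two to four replicates.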

The subject of assay [3] is Corn. Put plainly: Multi-crop greenhouse test, herbicide POE (Examples 62-64; Tables 61-63). Set-up: inhibition: dose or concentration left out as unconfirmed. The settings on record: for inhibition: Zea mays, Table 62, Biocide No. 1 8.96 Kg/Ha, antidote 4.48 Kg/Ha PPI where in label. As to the method:
(§1) Tests according to this invention in various crops indicate widespread application of the invention. In Examples 62-66 below are described tests with a variety of herbicides contacted with COUNTER® 15G in the presence and absence of MON-7400 (Antidote No. 12); MON-13900 (No. 1); MON-4660 (No. 16) and flurazole (No. 16). Those tests were conducted according to Procedures IV or V described above and illustrated further in other foregoing examples. Plants used in all tests were, for crops (as abbreviated in parentheses); cotton (COTT); soybean (SOBE); CORN, grain sorghum (GRSO); wheat (WHEA) and RICE, and the weeds giant foxtail (GIFT) and velvetleaf (VELE). The data in the tables below represent averages of two replications.
(§2) In this test the crops and weeds were planted 1.3 cm deep in 13.7 cm X 27.7 cm pans containing Dupo silt loam soil. The test safeners were applied in acetone solution and COUNTER 15G as dry granules to soil cover layers and incorporated by shaking in a bag. Treated cover layers were placed on seeded pans which were transferred to greenhouse benches and subirrigated. Herbicide was applied POE six (6) days after PPI initiation and observations of plant injury made ten (10) days later; results are shown in Table 61. The herbicide used in this example was BEACON (No. 8).
(§3) The test procedure described in Example 62 was repeated using ACCENT® (Herbicide No. 7) as the herbicide; the biocide and safeners were the same.

In assay [4] the test system is grain sorghum (GRSO). The description is as above. Set-up: dose or concentration left out as unconfirmed. The following applies: Biocide No. 1 8.96 Kg/Ha, antidote 4.48 Kg/Ha PPI where in label. The method, then:
as §1, §2, §3

Assay [5] has as its system Giant foxtail (GIFT). Described as above. Details: dose or concentration left out as unconfirmed. The following applies: Setaria faberi, Table 62, Biocide No. 1 8.96 Kg/Ha, antidote 4.48 Kg/Ha PPI where in label. The method, then:
as §1, §2, §3

Assay [6] relates to soybean (SOBE). Described as above. Set-up: dose or concentration left out as unconfirmed. The following applies: Glycine max, Table 62, Biocide No. 1 8.96 Kg/Ha, antidote 4.48 Kg/Ha PPI where in label. The method, then: as §1, §2, §3
Assay [7] relates to Velvetleaf (VELE). Described as above. Details: dose or concentration left out as unconfirmed. The following applies: Abutilon theophrasti, Table 62, Biocide No. 1 8.96 Kg/Ha, antidote 4.48 Kg/Ha PPI where in label. As to the method: as §1, §2, §3
In assay [8] the test system is wheat (WHEA). Described as above. Set-up: dose or concentration left out as unconfirmed. The following applies: Triticum aestivum, Table 62, Biocide No. 1 8.96 Kg/Ha, antidote 4.48 Kg/Ha PPI where in label. The method, then: as §1, §2, §3
Assay [9] deals with RICE. The description is as above. Set-up: dose or concentration left out as unconfirmed. The following applies: Oryza sativa, Table 62, Biocide No. 1 8.96 Kg/Ha, antidote 4.48 Kg/Ha PPI where in label. The method, then:
as §1, §2, §3

Assay [10] concerns cotton (COTT). Description: Multi-crop greenhouse test, COUNTER 15G and safener PPI, herbicide POE (Examples 62-64; Tables 61-63). Details: dose or concentration left out as unconfirmed. The following applies: Gossypium hirsutum, Table 62, Biocide No. 1 8.96 Kg/Ha, antidote 4.48 Kg/Ha PPI where in label. The method, then: as §1, §2, §3
[11] abbreviates: Herb. No. 7 (ACCENT) 0.0044 Kg/Ha POE.
The mark [12] stands for this setting: Herb. No. 7 (ACCENT) 0.035 Kg/Ha POE.
The mark [13] stands for this setting: Herb. No. 7 (ACCENT) 0.28 Kg/Ha POE.

Take `N#CCOc1ccc(Cl)c2cccnc12` [Antidote No. 33, Acetonitrile, [(5-chloro-8-quinolinyl)oxy]-]: the “safening” value in assay [1] is listed as “good activity”. Also, the “corn injury” value in assay [2] is listed as “significantly reduced”; in assay [3] (COUNTER 15G and BEACON, Example 62), “effectively reduced”.

Turning to `COc1cc(OC)nc(NC(=O)NS(=O)(=O)c2ncccc2C(=O)N(C)C)n1` [Herb. No. 7], the inhibition was found to be 60% in assay [4] (Table 62, Herb. No. 7 (ACCENT) 0.0044 Kg/Ha POE); 65% in assay [4] (Table 62, Herb. No. 7 (ACCENT) 0.035 Kg/Ha POE); 75% in assay [4] (Table 62, Herb. No. 7 (ACCENT) 0.28 Kg/Ha POE); 65% in assay [5] (setting [11]); 70% in [5] (setting [12]); 75% in assay [5] (setting [13]). Besides, the inhibition in assay [6] (setting [11]) came to 10%; in assay [6] (setting [12]), 20%; in assay [6] (setting [13]), 40%; in assay [7] (setting [11]), 40%; in assay [7] (setting [12]), 60%; in assay [7] (setting [13]), 65%. Moreover, the inhibition was 35% in [8] (setting [11]); 45% in assay [8] (setting [12]); 60% in [8] (setting [13]); 20% in [9] (setting [11]); 40% in assay [9] (setting [12]); 50% in [9] (setting [13]). Moreover, the inhibition in [10] (setting [11]) came to 25%; in [10] (setting [12]), 40%; in assay [10] (setting [13]) it was 50%; in assay [3] (setting [11]), 0%; in [3] (setting [12]), 0%; in assay [3] (setting [13]), 0%.

The inhibition is the change of the read-out against control, counted positive when it falls.
